# Data: patent US5612327A, “1α,24-(OH)2 -cholecalciferol emulsion composition and method for treating psoriasis” (priority 1993, dated 1997)
# Assays:
# [1] = Solubility and chemical stability of 1α,24-(OH)2 --V.D3; assay type: physicochemical; conditions: non-polar solvent
# [2] = system: excised skin (full skin) of Wistar rat; assay: Skin permeability of active ingredient from cream composition; assay type: in vitro ADME; conditions: 0.25 part by weight in bases of Examples 1, 4, 5 and Control Examples 14 to 21; Test Method 3
# Description: For the skin, use was made of skin cut off from a dilapidated Wistar rat (full skin=including stratum corneum, epidermis, and dermis). For the reservoir solution, use was made of Hanks buffer (pH=7.4) plus 10% bovine fetal serum. […] (For the method of assay, see below.)
SMILES,Solubility (in words) [1],Skin permeability of hydrocortisone acetate (in words) [2]
"C=C1C(=CC=C2CCCC3(C)C2CCC3C(C)CCC(O)C(C)C)CC(O)CC1O (stereo not drawn) [1α,24-(OH)2 --V.D3, 1α,24-dihydroxylcholecalciferol]",does not dissolve much at all in a non-polar solvent,–
CC(=O)OCC(=O)[C@@]1(O)CC[C@H]2[C@@H]3CCC4=CC(=O)CC[C@]4(C)[C@H]3[C@@H](O)C[C@@]21C [hydrocortisone acetate],–,almost completely unrelated to the weight ratio of the stearyl alcohol and cetyl alcohol
